Converted amounts (≈) assume the structure as drawn. “And” between values parts separate entries of the source, which are not always exact repeats. Identical values can stand only once. Like-named read-outs stand apart in the source and are kept apart here.
Columns and labels:
[1] = system: C. neoformans H99; assay: Minimum fungicidal concentration by subculturing after MIC reading; assay type: cell-based; conditions: Cryptococcus neoformans
Procedure: After MIC readings, the MFC values were determined by subculturing, at 35 °C for 48 h, of all concentrations that inhibited the fungal growth; and then MFC was defined as the lowest concentration of the compound capable of reducing ≥99% viability of the initial fungal inoculum. ,

[2] = system: C. neoformans H99; assay: Broth microdilution antifungal assay (MIC) in RPMI or urea medium; assay type: cell-based; conditions: Cryptococcus neoformans
Procedure: (§1) C. neoformans H99 (or ATCC 208821), a standard strain, was used to evaluate the antifungal activity of BSU1-BSU11 and BTU1-BTU11 compounds using the broth microdilution method. The assay was performed in two different culture media: the standard medium RPMI 1640 buffered with […] (RMPI), and the Christensen broth (urea medium: 1 g/L peptone, 1 g/L dextrose, 5 g/L sodium chloride, 2 g/L potassium phosphate, 20 g/L urea, 12 mg/L phenol red, pH 7.0). The compounds were dissolved in dimethyl sulfoxide (DMSO) and diluted in both media, obtaining final concentrations from 0.03 to 128 mg/L in a 96-well plate and final DMSO concentration below 0.5%, considered nontoxic. For assay, yeasts were distributed in each well to obtain a final inoculum of 0.5–2.5 × 10^3 CFU/mL, and the plate was incubated at 35 °C for 48 h.
(§2) The MIC values were determined in both media and were defined as the lowest concentrations of BSU1-BSU11 and BTU1-BTU11 that inhibited 50% of fungal growth visually compared with untreated yeasts (growth control). In addition, the urease activity was indicated by medium color change from orange to pink due to ammonia production and the MICure was defined as the lowest concentration that inhibited the urease activity by visual inspection in urea medium with no color changes. For both assays, two controls were included: untreated yeast group for observation of fungal growth pattern or intracellular urease activity, and wells containing only medium for assay sterility control.

[3] = biological target: T1, C. neoformans urease (Cryptococcus neoformans, UniProt O13465); assay: Urease activity in crude protein extract, indophenol method; assay type: biochemical; conditions: ureIC50, BSU series
T1 construct: endogenous in cells; host or cells: Cryptococcus neoformans H99, lysed by sonication; dialysed and lyophilised soluble fraction (total protein)
Procedure: C. neoformans H99 yeasts were cultivated in 100 mL of Christensen broth for 72 h at 35 °C by shaking at 200 rpm for the obtention of urease as previously described. Briefly, the yeasts were ruptured using a lysis buffer (40 mM Tris-HCl, 20 mM dithiothreitol, 4% Triton X-100, 1 mM ethylenediaminetetraacetic acid, 2 mM phenylmethylsulfonyl fluoride, protease inhibitor cocktail) and an ultrasonic sonicator. After centrifugation, the soluble fraction was dialyzed in a dialysis membrane submerged in 10 mM sodium phosphate buffer, pH 7.0; the sample was lyophilized and stored at −20 °C. Before the assay, the sample was resuspended in 1 mL of sodium phosphate buffer (10 mM, pH 7.0), and the total protein was quantified by the Bradford method.
The urease activity was determined by the indophenol method. In a 96-well microplate, 10 μL of 100 mM urea was added to 45 μL of total protein and 45 μL of BSU1-BSU11 (concentrations of 0.06–1000 μg/L) in phosphate buffer. The reaction was maintained for 10 min under shaking at 600 rpm, at room temperature. Then, 45 μL of solution A (1% phenol; 0.005% sodium nitroprusside) and 70 μL of solution B (0.5% sodium hydroxide; 0.1% sodium hypochlorite) were immediately added to the wells in the dark and incubated for 5 min at 50 °C under shaking at 600 rpm. Urease activity was quantified by measuring absorbance at 670 nm. The inhibitory concentration capable of inhibiting 50% of urease activity (ureIC50) was determined by nonlinear regression calculation using the GraphPad Prism 5.0 software.

[4] = biological target: T2, yeast urease activity (Cryptococcus neoformans, UniProt O13465); assay: Inhibition of yeast urease activity in urea (Christensen) medium, colour change (MICure); assay type: cell-based
T2 construct: endogenous in cells; host or cells: Cryptococcus neoformans H99 (ATCC 208821) yeasts in Christensen urea broth
Procedure: The inhibitory activity against yeast urease was assessed using Christensen’s medium, which contains urea to induce URE1 gene expression. […] Even in the presence of fungal growth, inhibition of urease activity was evidenced by the absence of medium color change, indicating suppressed ammonia production.
as §1, §2

[5] = system: C. neoformans; set-up: method as in PMID 36960287; conditions: against C. neoformans; cited from earlier work
[6] = H99, BSU series, after assay in RPMI medium, ≥99% reduction of viability
[7] = H99, Table S1, RPMI medium line
[8] = H99, Table S1, urea medium line
[9] = H99, 48 h, read-out: MIC RPMI, BSU series, 50% inhibition of fungal growth, RPMI medium, 35 °C, 48 h
[10] = H99, 48 h, read-out: MIC urea, BSU series, 50% inhibition of fungal growth, urea medium, 35 °C, 48 h
[11] = H99, Table S1, RPMI medium, C. neoformans H99
[12] = H99, Table S1, urea medium, C. neoformans H99
[13] = BSU series, 100% inhibition of yeast urease activity in urea medium
[14] = Table S1, urea medium, 100% inhibition of yeast urease activity

T2 sequence (O13465 whole entry): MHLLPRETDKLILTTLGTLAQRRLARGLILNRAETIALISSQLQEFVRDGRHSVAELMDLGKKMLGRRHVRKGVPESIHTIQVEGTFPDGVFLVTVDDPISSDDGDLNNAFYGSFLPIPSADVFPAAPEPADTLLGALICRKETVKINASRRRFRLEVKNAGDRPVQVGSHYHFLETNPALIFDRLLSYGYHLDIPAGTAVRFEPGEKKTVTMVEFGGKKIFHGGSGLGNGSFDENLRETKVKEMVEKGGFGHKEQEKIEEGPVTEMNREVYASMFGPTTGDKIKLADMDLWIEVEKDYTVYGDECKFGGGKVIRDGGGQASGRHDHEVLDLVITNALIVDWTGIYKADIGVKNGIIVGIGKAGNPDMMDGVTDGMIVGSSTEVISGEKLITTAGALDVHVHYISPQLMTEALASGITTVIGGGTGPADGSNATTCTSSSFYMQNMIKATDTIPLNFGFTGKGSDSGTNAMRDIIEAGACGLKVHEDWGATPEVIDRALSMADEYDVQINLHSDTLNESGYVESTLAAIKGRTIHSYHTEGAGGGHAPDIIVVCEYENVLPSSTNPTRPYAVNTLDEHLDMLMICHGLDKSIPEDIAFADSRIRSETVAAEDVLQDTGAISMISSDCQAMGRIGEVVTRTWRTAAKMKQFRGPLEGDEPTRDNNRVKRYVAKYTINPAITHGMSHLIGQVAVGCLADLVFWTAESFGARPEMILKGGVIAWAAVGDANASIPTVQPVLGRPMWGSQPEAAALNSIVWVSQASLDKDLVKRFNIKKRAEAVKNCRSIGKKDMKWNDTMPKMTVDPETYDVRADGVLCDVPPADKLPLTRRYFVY
T1 sequence (O13465 whole entry): as above

O=C(NC(=[Se])Nc1cccc(Br)c1)c1ccccc1 [BSU9]
MFC [1, 6]: 4 µg/mL (≈ 10.5 µM) | MFC [1, 7]: 1 µg/mL (≈ 2.62 µM) | MFC [1, 8]: 0.5 µg/mL (≈ 1.31 µM) | MIC [2, 9]: 4 µg/mL (≈ 10.5 µM) | MIC [2, 10]: 0.12 µg/mL (≈ 0.314 µM) | MIC [2, 11]: 1 µg/mL (≈ 2.62 µM) | MIC [2, 12]: 0.12 µg/mL (≈ 0.314 µM) | IC50 [3]: 2.31 nM and 2.3 nM | MICURE [4, 13]: 0.06 mg/L | MICURE [4, 14]: 0.12 mg/L

O=C(NC(=[Se])Nc1ccccc1[N+](=O)[O-])c1ccccc1 [BSU10]
MFC [1, 6]: 16 µg/mL (≈ 45.9 µM) | MFC [1, 7]: 16 µg/mL (≈ 45.9 µM) | MFC [1, 8]: 2 µg/mL (≈ 5.74 µM) | MIC [2, 9]: 8 µg/mL (≈ 23 µM) | MIC [2, 10]: 1 µg/mL (≈ 2.87 µM) | MIC [2, 11]: 8 µg/mL (≈ 23 µM) | MIC [2, 12]: 1 µg/mL (≈ 2.87 µM) | IC50 [3]: 8.68 nM and 8.67 nM | MICURE [4, 13]: 1 mg/L | MICURE [4, 14]: 1 mg/L

O=C(NC(=[Se])Nc1cccc([N+](=O)[O-])c1)c1ccccc1 [BSU11]
MFC [1, 6]: 64 µg/mL (≈ 184 µM) | MFC [1, 7]: > 16 µg/mL | MFC [1, 8]: 1 µg/mL (≈ 2.87 µM) | MIC [2, 9]: 32 µg/mL (≈ 91.9 µM) | MIC [2, 10]: 1 µg/mL (≈ 2.87 µM) | MIC [2, 11]: 16 µg/mL (≈ 45.9 µM) | MIC [2, 12]: 1 µg/mL (≈ 2.87 µM) | IC50 [3]: 7.91 nM and 7.93 nM | MICURE [4, 13]: 1 mg/L | MICURE [4, 14]: 1 mg/L

CCCCNC(=S)NC(=O)c1ccccc1 [Compound 4, N-(butylcarbamothioyl)benzamide]
MIC [5]: 31.25 to 62.5 µg/mL

— article PMC12461339, “Benzoylselenoureas: A Novel Dual-Action Inhibitor Targeting Fungal Growth and Urease Activity in Cryptococcus neoformans” (ACS Omega, 2025)
